According to US9567569B2, “Methods of culturing and expanding mesenchymal stem cells” (Gamida Cell Ltd., priority 2012, dated 2017):
Entries after “also recorded” stand apart in the source; their conditions may differ.

How the values were obtained:
[1] = biological target: T1, aryl hydrocarbon receptor (AhR) (Homo sapiens, UniProt P35869); settings: cited from earlier work
T1 sequence (P35869 11-848): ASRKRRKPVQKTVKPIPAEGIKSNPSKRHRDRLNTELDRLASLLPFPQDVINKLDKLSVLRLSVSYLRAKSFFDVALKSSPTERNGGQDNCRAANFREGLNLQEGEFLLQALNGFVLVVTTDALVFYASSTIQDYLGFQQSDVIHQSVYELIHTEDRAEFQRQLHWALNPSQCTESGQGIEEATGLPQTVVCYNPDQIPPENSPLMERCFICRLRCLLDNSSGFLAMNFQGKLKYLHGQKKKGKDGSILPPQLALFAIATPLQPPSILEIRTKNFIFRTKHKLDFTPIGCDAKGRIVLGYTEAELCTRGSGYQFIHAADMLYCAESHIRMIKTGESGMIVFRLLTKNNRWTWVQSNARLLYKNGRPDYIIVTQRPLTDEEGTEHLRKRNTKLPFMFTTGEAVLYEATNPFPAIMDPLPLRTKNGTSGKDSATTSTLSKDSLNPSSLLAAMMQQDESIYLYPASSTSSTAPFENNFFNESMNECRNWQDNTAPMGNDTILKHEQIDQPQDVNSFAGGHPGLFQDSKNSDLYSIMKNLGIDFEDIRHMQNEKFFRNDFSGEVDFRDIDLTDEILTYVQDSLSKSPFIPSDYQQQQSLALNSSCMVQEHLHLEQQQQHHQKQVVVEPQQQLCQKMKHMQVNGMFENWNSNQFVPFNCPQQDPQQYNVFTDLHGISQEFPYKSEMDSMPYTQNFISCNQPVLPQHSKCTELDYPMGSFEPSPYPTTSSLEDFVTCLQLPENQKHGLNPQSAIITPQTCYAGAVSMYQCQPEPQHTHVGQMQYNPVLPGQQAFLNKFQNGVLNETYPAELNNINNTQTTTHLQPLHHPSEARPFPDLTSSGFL

CD34+ cells = settings: cited from earlier work
[2] = tested on: Human bone marrow derived mesenchymal cells; assay: FACS measurement of CD45, CD105 and VCAM1/CD106 on cultured mesenchymal stem cells; assay type: cell-based; settings: with vs without SR1 under identical conditions
Experimental: (§1) Isolation—Human bone marrow derived mesenchymal cells were isolated based on their plastic adherence potential in expansion medium containing: High glucose DMEM and 10% Fetal Bovine Serum (FBS, Hyclone, Logan, Utah, USA), 0.05 mg/ml Gentamicin (Sigma) and 2 mM L-glutamine (Biological Industries, Israel). Cells were allowed to adhere for 3-4 days and non-adherent cells were washed out with medium changes. Expansion—Mesenchymal stem cells were isolated using plastic adherence method, as described above and cultured for several passages in a medium which comprises fetal bovine serum in the presence or absence of SR1 for three passages (StemRegenin1, BioVision cat#1967-1). Measurement of CD45, CD105 and VCAM1/CD106: following Trypsin treatment the cells were analyzed for CD45, CD105 or CD106 expression in FACS using anti-human CD45 FITC, CD105 PE or CD106 APC antibodies.

[3] = tested on: Human bone marrow derived mesenchymal cells; assay: Expansion of mesenchymal stem cells in culture in the presence or absence of SR1 (cell counts, doubling time); assay type: cell-based
Experimental: as §1, with “Three concentrations 250, 1000 and 2500 nM” for “Measurement”, “SR1 were examined. At about 80% confluence, adherent” for “CD45, CD105 and VCAM1/CD106: following Trypsin treatment the”, “collected following trypsin treatment, counted, characterized and re-seeded at a concentration of 1×10^3 cells/cm^2.” for “analyzed for CD45, CD105 or CD106 expression in FACS using anti-human CD45 FITC, CD105 PE or CD106 APC antibodies.”

## CC(C)n1cnc2c(NCCc3ccc(O)cc3)nc(-c3csc4ccccc34)nc21 [SR1, 4-(2-(2-(benzo[b]thiophen-3-yl)-9-isopropyl-9H-purin-6-ylamino)ethyl)phenol]
[1]
  action on the aryl hydrocarbon receptor: antagonizing
CD34+ cells
  ex vivo expansion of CD34+ cells: promote the ex vivo expansion of CD34+ cells
[2]; FIG. 4
  CD45 and CD105 levels (percentage of CD105+CD45- cells): same CD45 and CD105 levels
[2]; FIG. 5
  VCAM1/CD106 expression (percentage of CD106+ cells): increase the fraction of CD106+ cells; also recorded: express more VCAM1/CD106 adhesion molecule
[3]; SR1 250, 1000 and 2500 nM vs control, three passages, FIGS. 1-3
  effect on the proliferation of mesenchymal stem cells (cumulative count): proliferate more rapidly; also recorded: positive effect
[3]; of 250, 1000 and 2500 nM examined
  most effective concentration for proliferation of mesenchymal stem cells: 250 nM
[3]; passage 2, with vs without SR1, FIG. 3
  doubling time of mesenchymal stem cells: decreased
[3]; with vs without SR1
  time for cultures to reach confluence: substantially shorter period of time
